Results: patent US20140163023A1, “DIHYDROPYRROLO PYRIMIDINE DERIVATIVES AS MTOR INHIBITORS” (Cellzome Limited, priority 2011, published 2014)
Structures can show the parent of a compound that is named as a salt.

Columns and labels:
mTOR = target: T1, mTOR (Homo sapiens, UniProt P42345); experiment: mTOR kinobeads assay (competition binding in cell lysate, dot blot detection); conditions: 1:1 mix of Jurkat and Ramos cell lysates, read-out: Inhibition values (IC50 in μM) as determined in the kinobeads assay, mTor
T1 construct: endogenous in cells; host or cells: Jurkat (ATCC TIB-152, clone E6-1) and Ramos (ATCC CRL-1596), 1:1 lysate mix
Method: Determination of the Effect of the Compounds According to the Invention on mTOR
(§1) The compounds of the present invention as described were tested in the mTOR kinobeads assay as described below. Briefly, test compounds (at various concentrations) and the affinity matrix (1:1 mixture of beads with immobilized phenylthiazole ligand 1 and beads with immobilized phenylmorpholin-chromen ligand; WO 2009/098021) were added to cell lysate aliquots and allowed to bind to the proteins in the lysate sample. After the incubation time the beads with captured proteins were separated from the lysate. Bound proteins were then eluted and the presence of mTOR, PI3Kα, PI3Kβ, PI3Kγ, PI3Kδ and DNA-dependent protein kinase (DNA-PK) was detected and quantified using a specific antibody in a dot blot procedure and the Odyssey infrared detection system. Dose response curves for individual kinases were generated and IC50 values calculated. Kinobeads assays for PI3 kinases (WO-A 2008/015013) and for kinase selectivity profiling (WO 2009/098021) have been previously described.
(§2) Washing of Affinity Matrix
(§3) The affinity matrix was washed two times with 15 ml of 1×DP buffer containing 0.2% NP40 (IGEPAL® CA-630, Sigma, #13021) and then resupended in 5.5 ml of 1×DP buffer containing 0.2% NP40 (10% beads slurry).
(§4) 5×DP buffer: 250 mM Tris-HCl pH 7.4, 25% Glycerol, 7.5 mM MgCl2, 750 mM NaCl, 5 mM Na3VO4, filter the 5×-lysis buffer through 0.22 μm filter and store in aliquots at −80° C. The 5×DP buffer is diluted to 1×DP buffer containing 1 mM DTT and 25 mM NaF.
(§5) Preparation of Test Compounds
(§6) Stock solutions of test compounds were prepared in DMSO. In a 96 well plate 30 μl solution of diluted test compounds at 5 mM in DMSO were prepared. Starting with this solution a 1:3 dilution series (9 steps) was prepared. For control experiments (no test compound) a buffer containing 2% DMSO was used. Compound Pi-103 (Calbiochem catalogue number 528100) served as a positive control.
(§7) Cell Culture and Preparation of Cell Lysates
(§8) Jurkat cells (ATCC catalogue number TIB-152 Jurkat, clone E6-1) and Ramos cells (ATCC number CRL-1596) were grown in 1 litre Spinner flasks (Integra Biosciences, #182101) in suspension in RPMI 1640 medium (Invitrogen, #21875-034) supplemented with 10% Fetal Bovine Serum (Invitrogen) at a density between 0.15×10^6 and 1.2×10^6 cells/ml. Cells were harvested by centrifugation, washed once with 1×PBS buffer (Invitrogen, #14190-094) and cell pellets were frozen in liquid nitrogen and subsequently stored at −80° C.
(§9) Cells were homogenized in a Potter S homogenizer in lysis buffer: 50 mM Tris-HCl, 0.8% NP40, 5% glycerol, 150 mM NaCl, 1.5 mM MgCl2, 25 mM NaF, 1 mM sodium vanadate, 1 mM DTT, pH 7.5. One complete EDTA-free tablet (protease inhibitor cocktail, Roche Diagnostics, 1873580) per 25 ml buffer was added. The material was dounced 10 times using a mechanized POTTER S, transferred to 50 ml falcon tubes, incubated for 30 minutes on ice and spun down for 10 min at 20,000 g at 4° C. (10,000 rpm in Sorvall SLA600, precooled). The supernatant was transferred to an ultracentrifuge (UZ)-polycarbonate tube (Beckmann, 355654) and spun for 1 hour at 100.000 g at 4° C. (33.500 rpm in Ti50.2, precooled). The supernatant was transferred again to a fresh 50 ml falcon tube, the protein concentration was determined by a Bradford assay (BioRad) and samples containing 50 mg of protein per aliquot were prepared. The samples were immediately used for experiments or frozen in liquid nitrogen and stored frozen at −80° C.
(§10) Cell lysate (approximately 50 mg protein per plate) was thawed in a water bath at room temperature and then kept on ice. To the thawed cell lysate 1×DP 0.8% NP40 buffer containing protease inhibitors (1 tablet for 25 ml buffer; EDTA-free protease inhibitor cocktail; Roche Diagnostics 1873580) was added in order to reach a final protein concentration of 5 mg/ml total protein. For the kinobeads experiment a 1:1 mix of Jurkat and Ramos cell lysates was used. […]

PI3Kγ = target: T2, PI3Kγ (Homo sapiens, UniProt P48736); experiment: kinobeads assay, PI3Kγ; format: binding; conditions: 1:1 mix of Jurkat and Ramos cell lysates, read-out: Inhibition values (IC50 in μM) as determined in the kinobeads assay, PI3Kγ
T2 construct: endogenous in cells; host or cells: Jurkat (ATCC TIB-152, clone E6-1) and Ramos (ATCC CRL-1596), 1:1 lysate mix
Method: as §1, §2, §3, §4, §5, §6, §7, §8, §9
as §10, with “used. The diluted cell lysate was stored on ice.” for “used.”

[1] = target: T3, DNA-dependent protein kinase (DNA-PK) (Homo sapiens, UniProt P78527); experiment: kinobeads assay, DNA-PK; format: binding; conditions: 1:1 mix of Jurkat and Ramos cell lysates, read-out: Inhibition values (IC50 in μM) as determined in the kinobeads assay, DNA-PK
T3 construct: endogenous in cells; host or cells: Jurkat (ATCC TIB-152, clone E6-1) and Ramos (ATCC CRL-1596), 1:1 lysate mix
Method: as §1, §2, §3, §4, §5, §6, §7, §8, §9
as §10, with “used. The diluted cell lysate was stored on ice.” for “used.”

PI3Kδ = target: T4, PI3Kδ (Homo sapiens, UniProt O00329); experiment: kinobeads assay, PI3Kδ; format: binding; conditions: 1:1 mix of Jurkat and Ramos cell lysates, read-out: Inhibition values (IC50 in μM) as determined in the kinobeads assay, PI3Kδ
T4 construct: endogenous in cells; host or cells: Jurkat (ATCC TIB-152, clone E6-1) and Ramos (ATCC CRL-1596), 1:1 lysate mix
Method: as §1, §2, §3, §4, §5, §6, §7, §8, §9
as §10, with “used. The diluted cell lysate was stored on ice.” for “used.”

PI3Kβ = target: T5, PI3Kβ (Homo sapiens, UniProt P42338); experiment: kinobeads assay, PI3Kβ; format: binding; conditions: 1:1 mix of Jurkat and Ramos cell lysates, read-out: Inhibition values (IC50 in μM) as determined in the kinobeads assay, PI3Kβ
T5 construct: endogenous in cells; host or cells: Jurkat (ATCC TIB-152, clone E6-1) and Ramos (ATCC CRL-1596), 1:1 lysate mix
Method: as §1, §2, §3, §4, §5, §6, §7, §8, §9
as §10, with “used. The diluted cell lysate was stored on ice.” for “used.”

PI3Kα = target: T6, PI3Kα (Homo sapiens, UniProt P42336); experiment: kinobeads assay, PI3Kα; format: binding; conditions: 1:1 mix of Jurkat and Ramos cell lysates, read-out: Inhibition values (IC50 in μM) as determined in the kinobeads assay, PI3Kα
T6 construct: endogenous in cells; host or cells: Jurkat (ATCC TIB-152, clone E6-1) and Ramos (ATCC CRL-1596), 1:1 lysate mix
Method: as §1, §2, §3, §4, §5, §6, §7, §8, §9
as §10, with “used. The diluted cell lysate was stored on ice.” for “used.”

T3 sequence (P78527 whole entry): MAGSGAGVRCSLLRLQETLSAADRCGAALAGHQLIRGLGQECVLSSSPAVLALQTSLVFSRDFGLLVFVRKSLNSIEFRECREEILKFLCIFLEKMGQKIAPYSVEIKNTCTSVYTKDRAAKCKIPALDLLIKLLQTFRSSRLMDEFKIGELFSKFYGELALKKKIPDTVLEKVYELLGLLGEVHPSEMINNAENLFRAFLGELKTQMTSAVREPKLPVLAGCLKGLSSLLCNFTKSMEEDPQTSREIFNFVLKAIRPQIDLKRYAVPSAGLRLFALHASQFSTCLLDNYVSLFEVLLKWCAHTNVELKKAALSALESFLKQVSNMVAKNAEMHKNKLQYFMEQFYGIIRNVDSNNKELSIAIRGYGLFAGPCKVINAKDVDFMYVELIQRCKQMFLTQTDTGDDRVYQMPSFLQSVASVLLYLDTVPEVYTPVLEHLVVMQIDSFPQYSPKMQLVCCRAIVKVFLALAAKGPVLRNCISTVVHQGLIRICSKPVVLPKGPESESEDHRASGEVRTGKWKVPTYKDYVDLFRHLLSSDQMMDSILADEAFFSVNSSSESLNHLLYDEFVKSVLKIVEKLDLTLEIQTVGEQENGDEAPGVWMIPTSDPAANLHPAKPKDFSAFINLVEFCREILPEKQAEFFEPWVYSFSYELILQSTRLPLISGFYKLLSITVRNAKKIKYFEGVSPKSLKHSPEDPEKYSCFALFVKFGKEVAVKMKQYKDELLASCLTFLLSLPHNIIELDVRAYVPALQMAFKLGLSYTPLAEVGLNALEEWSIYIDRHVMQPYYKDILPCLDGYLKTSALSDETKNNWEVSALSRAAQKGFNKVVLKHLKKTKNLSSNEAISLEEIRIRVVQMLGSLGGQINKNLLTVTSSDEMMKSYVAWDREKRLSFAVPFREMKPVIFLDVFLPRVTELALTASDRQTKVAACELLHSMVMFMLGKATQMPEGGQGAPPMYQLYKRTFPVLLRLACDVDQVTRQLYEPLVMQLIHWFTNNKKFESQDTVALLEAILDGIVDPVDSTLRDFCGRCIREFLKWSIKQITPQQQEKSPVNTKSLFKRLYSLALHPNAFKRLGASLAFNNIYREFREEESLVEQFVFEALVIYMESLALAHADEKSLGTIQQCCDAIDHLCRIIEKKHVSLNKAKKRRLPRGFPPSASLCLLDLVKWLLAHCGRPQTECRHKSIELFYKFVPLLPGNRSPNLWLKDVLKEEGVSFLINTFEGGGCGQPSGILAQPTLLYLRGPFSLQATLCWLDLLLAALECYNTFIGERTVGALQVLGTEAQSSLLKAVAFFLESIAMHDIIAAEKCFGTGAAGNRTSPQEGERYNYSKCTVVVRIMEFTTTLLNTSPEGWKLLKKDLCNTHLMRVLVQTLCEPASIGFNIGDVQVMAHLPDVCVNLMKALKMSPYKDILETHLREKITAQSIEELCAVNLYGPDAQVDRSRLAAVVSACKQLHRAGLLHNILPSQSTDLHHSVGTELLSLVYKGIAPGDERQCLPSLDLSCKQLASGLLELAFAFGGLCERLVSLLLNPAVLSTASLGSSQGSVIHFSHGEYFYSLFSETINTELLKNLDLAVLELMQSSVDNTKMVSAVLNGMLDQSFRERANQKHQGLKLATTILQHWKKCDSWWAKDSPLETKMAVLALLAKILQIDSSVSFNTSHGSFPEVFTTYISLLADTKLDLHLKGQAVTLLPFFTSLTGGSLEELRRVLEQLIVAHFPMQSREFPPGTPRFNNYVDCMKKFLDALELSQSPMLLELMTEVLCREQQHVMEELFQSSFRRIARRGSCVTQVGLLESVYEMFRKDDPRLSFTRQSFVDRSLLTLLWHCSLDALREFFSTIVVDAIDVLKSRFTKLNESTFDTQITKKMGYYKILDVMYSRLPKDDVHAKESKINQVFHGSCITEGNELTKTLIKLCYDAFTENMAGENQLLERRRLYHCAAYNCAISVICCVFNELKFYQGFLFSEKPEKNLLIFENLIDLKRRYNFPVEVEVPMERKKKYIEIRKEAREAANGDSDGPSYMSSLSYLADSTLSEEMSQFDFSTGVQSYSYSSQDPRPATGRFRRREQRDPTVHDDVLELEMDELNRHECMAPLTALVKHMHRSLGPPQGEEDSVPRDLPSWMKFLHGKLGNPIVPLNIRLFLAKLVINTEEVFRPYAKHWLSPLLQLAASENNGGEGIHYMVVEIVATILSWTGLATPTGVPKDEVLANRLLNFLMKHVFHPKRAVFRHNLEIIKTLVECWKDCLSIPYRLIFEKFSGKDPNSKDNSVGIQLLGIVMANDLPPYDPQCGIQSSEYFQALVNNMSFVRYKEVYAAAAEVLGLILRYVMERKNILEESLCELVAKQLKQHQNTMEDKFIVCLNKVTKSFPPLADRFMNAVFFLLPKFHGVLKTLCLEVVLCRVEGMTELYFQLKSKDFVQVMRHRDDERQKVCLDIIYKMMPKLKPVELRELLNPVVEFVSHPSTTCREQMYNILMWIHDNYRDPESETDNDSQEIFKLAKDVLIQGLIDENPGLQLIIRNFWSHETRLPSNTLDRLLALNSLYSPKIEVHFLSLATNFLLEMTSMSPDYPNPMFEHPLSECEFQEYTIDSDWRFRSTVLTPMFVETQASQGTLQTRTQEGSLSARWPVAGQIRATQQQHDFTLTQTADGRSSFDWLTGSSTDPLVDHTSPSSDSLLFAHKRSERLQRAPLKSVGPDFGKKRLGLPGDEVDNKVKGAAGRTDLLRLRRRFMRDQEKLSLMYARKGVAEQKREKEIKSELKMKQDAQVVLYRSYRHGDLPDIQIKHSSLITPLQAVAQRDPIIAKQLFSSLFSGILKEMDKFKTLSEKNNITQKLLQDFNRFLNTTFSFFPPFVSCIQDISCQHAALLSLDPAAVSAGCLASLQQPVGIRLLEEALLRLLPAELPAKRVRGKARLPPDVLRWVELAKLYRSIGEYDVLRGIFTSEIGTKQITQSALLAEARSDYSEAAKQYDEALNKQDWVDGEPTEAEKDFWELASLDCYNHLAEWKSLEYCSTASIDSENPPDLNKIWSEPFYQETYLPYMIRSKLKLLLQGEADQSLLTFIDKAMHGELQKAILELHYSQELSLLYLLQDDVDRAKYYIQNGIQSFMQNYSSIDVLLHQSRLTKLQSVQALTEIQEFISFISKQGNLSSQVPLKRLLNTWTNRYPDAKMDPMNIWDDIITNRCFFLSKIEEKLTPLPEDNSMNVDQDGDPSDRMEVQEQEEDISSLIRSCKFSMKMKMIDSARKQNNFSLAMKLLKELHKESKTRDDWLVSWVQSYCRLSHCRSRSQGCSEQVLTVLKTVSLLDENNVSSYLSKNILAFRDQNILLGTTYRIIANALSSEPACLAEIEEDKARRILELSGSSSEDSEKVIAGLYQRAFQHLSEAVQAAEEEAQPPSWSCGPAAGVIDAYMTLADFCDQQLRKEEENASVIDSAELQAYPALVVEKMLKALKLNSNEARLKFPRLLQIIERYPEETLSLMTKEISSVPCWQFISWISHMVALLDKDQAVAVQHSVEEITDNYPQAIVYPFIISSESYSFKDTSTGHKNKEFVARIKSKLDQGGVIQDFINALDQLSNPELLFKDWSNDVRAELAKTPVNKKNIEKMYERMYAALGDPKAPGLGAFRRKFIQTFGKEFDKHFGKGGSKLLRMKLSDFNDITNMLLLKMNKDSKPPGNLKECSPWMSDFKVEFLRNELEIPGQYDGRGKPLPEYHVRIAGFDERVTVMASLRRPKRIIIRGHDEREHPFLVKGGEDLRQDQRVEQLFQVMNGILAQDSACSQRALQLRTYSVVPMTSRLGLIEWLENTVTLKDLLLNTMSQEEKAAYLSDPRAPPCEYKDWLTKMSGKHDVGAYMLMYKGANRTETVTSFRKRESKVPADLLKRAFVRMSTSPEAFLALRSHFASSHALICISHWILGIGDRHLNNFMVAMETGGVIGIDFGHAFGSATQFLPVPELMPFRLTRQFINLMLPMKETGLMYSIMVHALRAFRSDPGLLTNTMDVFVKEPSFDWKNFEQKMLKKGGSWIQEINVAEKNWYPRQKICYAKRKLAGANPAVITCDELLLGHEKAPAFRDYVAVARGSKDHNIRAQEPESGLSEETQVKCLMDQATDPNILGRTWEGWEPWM

| Structure (SMILES) | IC50 (mTOR) | IC50 (PI3Kγ) | IC50 [1] | IC50 (PI3Kδ) | IC50 (PI3Kβ) | IC50 (PI3Kα) |
| --- | --- | --- | --- | --- | --- | --- |
| C[C@H]1COCCN1c1nc2c(c(-c3ccc(NC(=O)NCCO)cc3)n1)CN(S(C)(=O)=O)C2 [Example 36, (S)-1-(2-hydroxyethyl)-3-(4-(2-(3-methylmorpholino)-6-(methylsulfonyl)-6,7-dihydro-5H-pyrrolo[3,4-d]pyrimidin-4-yl)phenyl)urea] | 0.1 to 1 µM | 1 to 10 µM | > 100 µM | 10 to 100 µM | 10 to 100 µM | 10 to 100 µM |
| C[C@H]1COCCN1c1nc2c(c(-c3ccc(NC(=O)NC4CC4)cc3)n1)CN(C(=O)CN1CCOCC1)C2 [Example 47, (S)-1-cyclopropyl-3-(4-(2-(3-methylmorpholino)-6-(2-morpholinoacetyl)-6,7-dihydro-5H-pyrrolo[3,4-d]pyrimidin-4-yl)phenyl)urea 2,2,2-trifluoroacetate] | 1 to 10 µM | > 100 µM | > 100 µM | > 100 µM | 10 to 100 µM | > 100 µM |
| C[C@@H]1COCCN1c1nc2c(c(-c3ccc(NC(=O)NC4CC4)cc3)n1)CNC2 [Example 26, (R)-1-cyclopropyl-3-(4-(2-(3-methylmorpholino)-6,7-dihydro-5H-pyrrolo[3,4-d]pyrimidin-4-yl)phenyl)urea] | 0.1 to 1 µM | > 100 µM | > 100 µM | 10 to 100 µM | 10 to 100 µM | > 100 µM |
| C[C@H]1COCCN1c1nc2c(c(-c3ccc(NC(=O)NC4CC4)cc3)n1)CN(C(=O)CCCN)C2 [Example 30, (S)-1-(4-(6-(4-aminobutanoyl)-2-(3-methylmorpholino)-6,7-dihydro-5H-pyrrolo[3,4-d]pyrimidin-4-yl)phenyl)-3-cyclopropylurea] | 1 to 10 µM | > 100 µM | > 100 µM | 10 to 100 µM | 10 to 100 µM | 10 to 100 µM |
| CC(C)CN1Cc2nc(N3CC4CCC(C3)O4)nc(-c3ccc(NC(=O)NCCO)cc3)c2C1 [Example 48, 1-(4-(2-(8-oxa-3-azabicyclo[3.2.1]octan-3-yl)-6-isobutyl-6,7-dihydro-5H-pyrrolo[3,4-d]pyrimidin-4-yl)phenyl)-3-(2-hydroxyethyl)urea 2,2,2-trifluoroacetate] | 1 to 10 µM | > 100 µM | > 100 µM | > 100 µM | > 100 µM | > 100 µM |
| CCNC(=O)Nc1ccc(-c2nc(N3CCOC[C@@H]3C)nc3c2CN(C=O)C3)cc1 [Example 3, (S)-1-ethyl-3-(4-(6-formyl-2-(3-methylmorpholino)-6,7-dihydro-5H-pyrrolo[3,4-d]pyrimidin-4-yl)phenyl)urea] | 0.1 to 1 µM | 10 to 100 µM | > 100 µM | 10 to 100 µM | 10 to 100 µM | 10 to 100 µM |
| C[C@H]1COCCN1c1nc2c(c(-c3ccc(NC(=O)NC4CC4)cc3)n1)CN(C(N)=O)C2 [Example 42, (S)-4-(4-(3-cyclopropylureido)phenyl)-2-(3-methylmorpholino)-5H-pyrrolo[3,4-d]pyrimidine-6(7H)-carboxamide 2,2,2-trifluoroacetate] | 0.1 to 1 µM | > 100 µM | > 100 µM | 10 to 100 µM | 10 to 100 µM | 10 to 100 µM |
| CCNC(=O)Nc1ccc(-c2nc(N3CC4CCC(C3)O4)nc3c2CNC3)cc1 [Example 44, 1-(4-(2-(8-oxa-3-azabicyclo[3.2.1]octan-3-yl)-6,7-dihydro-5H-pyrrolo[3,4-d]pyrimidin-4-yl)phenyl)-3-ethylurea hydrochloride] | 0.1 to 1 µM | > 100 µM | 10 to 100 µM | 10 to 100 µM | 10 to 100 µM | > 100 µM |
| CC(=O)N1Cc2nc(N3CCOC[C@@H]3C)nc(-c3ccc(NC(=O)NCCO)cc3)c2C1 [Example 39, (S)-1-(4-(6-acetyl-2-(3-methylmorpholino)-6,7-dihydro-5H-pyrrolo[3,4-d]pyrimidin-4-yl)phenyl)-3-(2-hydroxyethyl)urea] | 0.1 to 1 µM | 10 to 100 µM | 10 to 100 µM | 1 to 10 µM | 10 to 100 µM | 10 to 100 µM |
| CC(C)N1Cc2nc(N3CCOC[C@@H]3C)nc(-c3ccc(NC(=O)NC4CC4)cc3)c2C1 [Example 13, (S)-1-cyclopropyl-3-(4-(6-isopropyl-2-(3-methylmorpholino)-6,7-dihydro-5H-pyrrolo[3,4-d]pyrimidin-4-yl)phenyl)urea] | 0.1 to 1 µM | > 100 µM | > 100 µM | > 100 µM | > 100 µM | > 100 µM |
| C[C@H]1COCCN1c1nc2c(c(-c3ccc(NC(=O)NC4CC4)cc3)n1)CN(S(=O)(=O)C1CC1)C2 [Example 35, (S)-1-cyclopropyl-3-(4-(6-(cyclopropylsulfonyl)-2-(3-methylmorpholino)-6,7-dihydro-5H-pyrrolo[3,4-d]pyrimidin-4-yl)phenyl)urea] | 1 to 10 µM | > 100 µM | > 100 µM | > 100 µM | > 100 µM | > 100 µM |
| C[C@H]1COCCN1c1nc2c(c(-c3ccc(NC(=O)NC4CC4)cc3)n1)CN(C(=O)CCN(C)C)C2 [Example 21, (S)-1-cyclopropyl-3-(4-(6-(3-(dimethylamino)propanoyl)-2-(3-methylmorpholino)-6,7-dihydro-5H-pyrrolo[3,4-d]pyrimidin-4-yl)phenyl)urea] | 1 to 10 µM | > 100 µM | > 100 µM | 10 to 100 µM | 10 to 100 µM | > 100 µM |
| C[C@H]1COCCN1c1nc2c(c(-c3ccc(NC(=O)NC4CC4)cc3)n1)CN(C(=O)C1CCCO1)C2 (stereo partly drawn) [Example 33, 1-cyclopropyl-3-(4-(2-((S)-3-methylmorpholino)-6-(tetrahydrofuran-2-carbonyl)-6,7-dihydro-5H-pyrrolo[3,4-d]pyrimidin-4-yl)phenyl)urea] | 1 to 10 µM | > 100 µM | > 100 µM | 10 to 100 µM | 10 to 100 µM | > 100 µM |
